Source: ChEMBL document CHEMBL4627287, “Synthesis and biological evaluation of novel pyrazolo[3,4-b]pyridines as cis-restricted combretastatin A-4 analogues” (Bioorg Med Chem Lett, 2020)

Key:
MDA-MB-231 = test: Antiproliferative activity against human MDA-MB-231 cells assessed as cell growth inhibition measured after 48 hrs by MTT assay; assay type: functional, cell-based; details: MDA-MB-231, 48 h
KYSE-150 cell line = test: Antiproliferative activity against human KYSE-150 cells assessed as cell growth inhibition measured after 48 hrs by MTT assay; assay type: functional, cell-based; details: KYSE-150, 48 h
MCF7 = test: Antiproliferative activity against human MCF7 cells assessed as cell growth inhibition measured after 48 hrs by MTT assay; assay type: functional, cell-based; details: MCF7, 48 h
HeLa [1] = test: Antiproliferative activity against human HeLa cells assessed as cell growth inhibition measured after 48 hrs by MTT assay; assay type: functional, cell-based
Tubulin (Homo sapiens) = Tubulin (Homo sapiens) (UniProt P68371+Q9H4B7+P0DPH7+P68366+Q13509+Q71U36+P04350+Q3ZCM7+P07437+P68363+Q9BQE3+Q6PEY2+Q13885+Q9BVA1+Q9BUF5); test: Inhibition of tubulin polymerization (unknown origin) at 10 uM relative to control; assay type: protein-complex assay
HeLa [2] = test: Cell cycle arrest in human HeLa cells assessed as accumulation at G0/G1 phase at 9 uM measured after 24 hrs by propidium iodide staining based flow cytometry analysis (reference value: 67.86 %); assay type: functional
HeLa [3] = test: Cell cycle arrest in human HeLa cells assessed as accumulation at S phase at 18 uM measured after 24 hrs by propidium iodide staining based flow cytometry analysis (reference value: 18.92 %); assay type: functional
HeLa [4] = test: Cell cycle arrest in human HeLa cells assessed as accumulation at G2/M phase at 18 uM measured after 24 hrs by propidium iodide staining based flow cytometry analysis (reference value: 13.92 %); assay type: functional
HeLa [5] = test: Cell cycle arrest in human HeLa cells assessed as accumulation at G0/G1 phase at 18 uM measured after 24 hrs by propidium iodide staining based flow cytometry analysis (reference value: 67.86 %); assay type: functional
HeLa [6] = test: Cell cycle arrest in human HeLa cells assessed as accumulation at G2/M phase measured after 24 hrs by propidium iodide staining based flow cytometry analysis; assay type: functional
HeLa [7] = test: Cell cycle arrest in human HeLa cells assessed as accumulation at S phase at 36 uM measured after 24 hrs by propidium iodide staining based flow cytometry analysis (reference value: 18.92 %); assay type: functional
HeLa [8] = test: Cell cycle arrest in human HeLa cells assessed as accumulation at G0/G1 phase at 36 uM measured after 24 hrs by propidium iodide staining based flow cytometry analysis (reference value: 67.86 %); assay type: functional
HeLa [9] = test: Cell cycle arrest in human HeLa cells assessed as accumulation at G2/M phase at 9 uM measured after 24 hrs by propidium iodide staining based flow cytometry analysis (reference value: 13.92 %); assay type: functional
HeLa [10] = test: Cell cycle arrest in human HeLa cells assessed as accumulation at S phase at 9 uM measured after 24 hrs by propidium iodide staining based flow cytometry analysis (reference value: 18.92 %); assay type: functional
HeLa [11] = test: Cell cycle arrest in human HeLa cells assessed as accumulation at G2/M phase at 36 uM measured after 24 hrs by propidium iodide staining based flow cytometry analysis (reference value: 13.92 %); assay type: functional

| Compound | IC50 (MDA-MB-231) [µM] | IC50 (MCF7) [µM] | IC50 (HeLa [1]) [µM] | IC50 (KYSE-150 cell line) [µM] | further results |
| --- | --- | --- | --- | --- | --- |
| COc1cccc(-c2nn(-c3cc(OC)c(OC)c(OC)c3)c3ncccc23)c1 | 86.7 | 86.9 | 85 | > 100 |  |
| COc1ccc(-c2nn(-c3cc(OC)c(OC)c(OC)c3)c3ncccc23)cc1[N+](=O)[O-] | 37.3 | 28.4 | 23.5 | > 100 | inhibition (Tubulin (Homo sapiens)): 16% |
| COc1cc(-c2nn(Cc3ccc(C)cc3)c3ncccc23)cc(OC)c1OC | > 100 | > 100 | > 100 | > 100 |  |
| COc1cc(-c2nn(Cc3ccc(F)cc3)c3ncccc23)cc(OC)c1OC | 61.5 | > 100 | 92.7 | > 100 |  |
| COc1ccc(/C=C\c2cc(OC)c(OC)c(OC)c2)cc1O [COMBRETASTATIN A4] | 0.017 |  | 0.003 | 0.6 |  |
| COc1cc(-c2nn(-c3ccc(C(=O)NN)cc3)c3ncccc23)cc(OC)c1OC | > 100 | 65.2 | 29.7 | > 100 |  |
| COc1cccc(-c2nn(-c3cc(OC)c(OC)c(OC)c3)c3ncccc23)n1 | > 100 | > 100 | > 100 | > 100 |  |
| COc1ccc(-c2nn(-c3cc(OC)c(OC)c(OC)c3)c3ncccc23)cc1N | > 100 | > 100 | 33.4 | 58.1 |  |
| COc1ccccc1-c1nn(-c2cc(OC)c(OC)c(OC)c2)c2ncccc12 | > 100 | > 100 | > 100 | > 100 |  |
| COc1cc(-n2nc(-c3ccc4c(c3)OCO4)c3cccnc32)cc(OC)c1OC | 79.7 | 80.1 | 38.9 | 58.9 |  |
| COc1ccc(-c2nn(-c3cc(OC)c(OC)c(OC)c3)c3ncccc23)cc1OC | 28.7 | 96.8 | 22.7 | > 100 | inhibition (Tubulin (Homo sapiens)): 14% |
| COc1ccc(-c2nn(-c3cc(OC)c(OC)c(OC)c3)c3ncccc23)cc1O | 27 | 27.2 | 18.1 | 62.8 | Activity (HeLa [2]): 51.89%; Activity (HeLa [3]): 14.85%; Activity (HeLa [4]): 34.87%; Activity (HeLa [5]): 50.48%; Activity (HeLa [6]): Dose-dependent effect; inhibition (Tubulin (Homo sapiens)): 31%; Activity (HeLa [7]): 21.25%; Activity (HeLa [8]): 30.61%; Activity (HeLa [9]): 26.93%; Activity (HeLa [10]): 21.18%; Activity (HeLa [11]): 48.13% |
| COc1cc(-c2nn(-c3ccc(Cl)cc3)c3ncccc23)cc(OC)c1OC | > 100 | > 100 | > 100 | > 100 |  |
| COc1ccc(F)cc1-c1nn(-c2cc(OC)c(OC)c(OC)c2)c2ncccc12 | 69.9 | > 100 | 91.8 | 74.3 |  |
| COC(=O)c1ccc(-n2nc(-c3cc(OC)c(OC)c(OC)c3)c3cccnc32)cc1 | > 100 | > 100 | > 100 | > 100 |  |
| COc1cc(-n2nc(-c3ccccc3OC(F)(F)F)c3cccnc32)cc(OC)c1OC | 60.5 | > 100 | 78.9 | > 100 |  |
| COc1cc(-n2nc(-c3ccc(Cl)c(Cl)c3)c3cccnc32)cc(OC)c1OC | > 100 | > 100 | > 100 | > 100 |  |
| COc1cc(F)ccc1-c1nn(-c2cc(OC)c(OC)c(OC)c2)c2ncccc12 | 47 | 87.6 | 58.3 | 87.4 | inhibition (Tubulin (Homo sapiens)): 20% |
| COc1ccc(-n2nc(-c3cc(OC)c(OC)c(OC)c3)c3cccnc32)cc1OC | > 100 | > 100 | > 100 | > 100 |  |

More lines, main results first:

| IC50 (MDA-MB-231) [µM] | IC50 (MCF7) [µM] | IC50 (HeLa [1]) [µM] | Compound | IC50 (KYSE-150 cell line) [µM] | further results |
| --- | --- | --- | --- | --- | --- |
| > 100 | > 100 | > 100 | COc1cc(-n2nc(-c3ccc(C)cc3)c3cccnc32)cc(OC)c1OC | > 100 |  |
| > 100 | > 100 | > 100 | COc1ccc(-c2nn(-c3cc(OC)c(OC)c(OC)c3)c3ncccc23)cc1 | > 100 |  |
| 82.5 | 45.9 | 72.5 | COc1cc(-n2nc(-c3ccc(C#N)cc3)c3cccnc32)cc(OC)c1OC | 85.9 |  |
| 56.4 | 76.7 | 51.4 | COc1cc(-n2nc(-c3ccc(F)cc3)c3cccnc32)cc(OC)c1OC | 41.1 | inhibition (Tubulin (Homo sapiens)): 18% |
| > 100 | > 100 | > 100 | COC(=O)c1ccc(-c2nn(-c3cc(OC)c(OC)c(OC)c3)c3ncccc23)cc1 | > 100 |  |
| > 100 | > 100 | 84.5 | COc1cc(-n2nc(-c3ccc([N+](=O)[O-])cc3)c3cccnc32)cc(OC)c1OC | > 100 |  |
| 51 | > 100 | 21.9 | COc1cc(-n2nc(-c3ccc(C(=O)NN)cc3)c3cccnc32)cc(OC)c1OC | > 100 |  |
| 84.3 | 97.6 | > 100 | COc1cc(-n2nc(-c3ccc(Cl)cc3)c3cccnc32)cc(OC)c1OC | > 100 |  |
